The record followed here is patent US20250206761A1, “HALOINDOLE MACROCYCLIC COMPOUNDS FOR THE TREATMENT OF CANCER” (Hoffmann-La Roche Inc., priority 2022, published 2025).

Experiment [1] deals with NCI-H358 (ATCC-CRL5807) cells. Nature of the experiment: Cell viability assay, G12C (NCI-H358). It counts as cell-based, human. As to conditions: Homo sapiens; KRAS cell viability, NCI-H358, 72 hrs, Cell Counting Kit-8. On the procedure: The purpose of this cellular assay was to determine the effects of test compounds on the proliferation of human cancer cell lines NCI-H358 (ATCC-CRL5807) cells, AGS (ATCC-CRL-1739) cells, SW620 (ATCC-CCL-227) over a 3-day treatment period by quantifying the amount of NADPH present at endpoint using Cell Counting Kit-8.
Cells were seeded at 5,000 cells/well (NCI-H358), 2,000 cells/well (AGS) 2,000 cells/well (SW620) in 96-well assay plates (Corning-3699) and incubated overnight. On the day of the assay, diluted compounds were then added in a final concentration of 0.5% DMSO. After 72 hrs incubation, a tenth of the volume of cell counting kit 8 (Dnjindo-CK04) was added into each well. Read the signal (OD450 minus OD650) using EnVision after 2 hrs incubation. IC50 was determined by fitting a 4-parameter sigmoidal concentration response model.
For orientation: Tetrazolium assays rely on reduction of a dye to a coloured formazan, in cell work by metabolically active cells.

The test system of experiment [2] is AGS (ATCC-CRL-1739) cells. Description: Cell viability assay, G12D (AGS). It counts as cell-based, human. As to conditions: Homo sapiens, KRAS cell viability, 72 hrs, Cell Counting Kit-8. In a few lines: (§1)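 Cells were seeded at 5,000 cells/well (NCI-H358) or 2,000 cells/well (AGS, SW620), incubated overnight, then treated with compounds in 0.5% DMSO final for 72 hrs. CCK-8 was added and OD450 minus OD650 read after 2 hrs; IC50 came from a 4-parameter sigmoidal fit.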

The subject of experiment [3] is SW620 (ATCC-CCL-227). Nature of the experiment: Cell viability assay, G12V (SW620). It counts as cell-based, human. As to conditions: Homo sapiens, SW-620; KRAS cell viability, SW620, 72 hrs, Cell Counting Kit-8. In a few lines:
as §1

For experiment [4], the target named is KRAS G12C-BRAF complex (Homo sapiens (Human), UniProt P01116+P62937, G12C). Description: KRAS-BRAF with CYPA (500 nM) interaction assay (TR-FRET), G12C. It counts as biochemical. A general note: Time-resolved FRET reads energy transfer from a long-lived donor to a nearby acceptor.
In experiment [5] the target is KRAS G12D binding to BRAF (Homo sapiens (Human), UniProt P01116+P62937, G12D). Description: KRAS-BRAF with CYPA (500 nM) interaction assay (TR-FRET), G12D. It counts as biochemical.
In experiment [6] the target is KRAS G12V binding to BRAF (Homo sapiens (Human), UniProt P01116+P62937, G12V). Nature of the experiment: KRAS-BRAF with CYPA (500 nM) interaction assay (TR-FRET), G12V. It counts as biochemical. In a few lines: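 A TR-FRET assay measured how compound, in the presence of CYPA, disrupts binding of GMPPNP-loaded 6His-KRAS G12V to BRAF. The buffer contained 25 mM HEPES PH=7.4, 0.002% Tween20, 0.1% BSA, 100 mM NaCl, 5 mM MgCl2 and 10 μM GMPPNP. Compounds ran as a 16-point 3-fold dilution series from 10 μM for 3 hours.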

The test system of experiment [7] is phosphorylation of ERK, KRAS G12C in NCJ-H358 cells. Nature of the experiment: pERK inhibition assay, KRAS G12C. As to conditions: Homo sapiens, 4 hours. It counts as cell-based, human. In a few lines:
(§2)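 Seeding densities differed per line: 30,000/well for NCJ-H358 and SW620, 20,000/well for AGS, all in RPMI-1640 plus 10% FBS. After attachment overnight, compound was applied for 4 h. Phospho-ERK was then quantified by in-cell ELISA (OD450), with IC50 fitted sigmoidally.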

The subject of experiment [8] is phosphorylation of ERK, KRAS G12V in SW620. Nature of the experiment: pERK inhibition assay, KRAS G12V. It counts as cell-based, human. As to conditions: Homo sapiens, SW-620, SW620, 4 hours. In a few lines:
as §2

Structures are written as SMILES.

Chain of KRAS G12C-BRAF complex (P01116-2 other isoform, or with tags, fused parts or gaps G12C): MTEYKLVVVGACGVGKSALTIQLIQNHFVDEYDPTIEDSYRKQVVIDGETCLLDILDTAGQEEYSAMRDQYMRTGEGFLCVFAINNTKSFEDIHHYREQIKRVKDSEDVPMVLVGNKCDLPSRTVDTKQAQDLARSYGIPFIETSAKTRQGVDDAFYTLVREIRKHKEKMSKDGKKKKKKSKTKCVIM
Chain of KRAS G12C-BRAF complex (P62937 whole entry): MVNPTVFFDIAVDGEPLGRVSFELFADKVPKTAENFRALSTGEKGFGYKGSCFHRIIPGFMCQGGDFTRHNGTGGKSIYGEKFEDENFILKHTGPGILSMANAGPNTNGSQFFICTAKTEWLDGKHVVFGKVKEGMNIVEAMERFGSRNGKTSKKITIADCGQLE
Chain of KRAS G12D binding to BRAF (P01116-2 other isoform, or with tags, fused parts or gaps G12D): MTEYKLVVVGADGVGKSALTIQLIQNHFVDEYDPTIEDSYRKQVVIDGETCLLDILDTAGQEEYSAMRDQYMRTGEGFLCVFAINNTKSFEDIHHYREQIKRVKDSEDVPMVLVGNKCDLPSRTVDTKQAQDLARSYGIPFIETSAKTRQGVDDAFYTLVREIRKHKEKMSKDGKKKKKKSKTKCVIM
Chain of KRAS G12D binding to BRAF (P62937 whole entry): as the sequence (P62937 whole entry) above
Chain of KRAS G12V binding to BRAF (P01116-2 other isoform, or with tags, fused parts or gaps G12V): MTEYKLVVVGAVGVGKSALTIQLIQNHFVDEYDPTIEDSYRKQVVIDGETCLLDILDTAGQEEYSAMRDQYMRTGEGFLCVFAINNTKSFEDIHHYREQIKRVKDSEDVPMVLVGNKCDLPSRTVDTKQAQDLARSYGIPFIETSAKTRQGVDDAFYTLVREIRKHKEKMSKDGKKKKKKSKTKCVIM
Chain of KRAS G12V binding to BRAF (P62937 whole entry): as the sequence (P62937 whole entry) above

By IC50 is commonly meant the concentration needed to halve the response being measured. Take `CO[C@@H](C)c1ncc(N2CCN(CC(F)(F)F)CC2)cc1-c1c2c3cc(c(F)cc3n1CC(F)(F)F)-c1csc(n1)C[C@H](NC(=O)[C@H](C(C)C)N1CC[C@]3(CCN(C(=O)[C@H](F)Cl)C3)C1=O)C(=O)N1CCC[C@H](N1)C(=O)OCC(C)(C)C2` (atropisomer, axis not shown; (M)) [Example 45, (2S)-2-[(5S)-7-[(2R)-2-chloro-2-fluoro-acetyl]-1-oxo-2,7-diazaspiro[4.4]nonan-2-yl]-N-[(7S,13S)-24-fluoro-(20M)-20-[2-[(1S)-1-methoxyethyl]-5-[4-(2,2,2-trifluoroethyl)piperazin-1-yl]-3-pyridyl]-17,17-dimethyl-8,14-dioxo-21-(2,2,2-trifluoroethyl)-15-oxa-4-thia-9,21,27,28-tetrazapentacyclo[17.5.2.1^2,5.1^9,13.0^22,26]octacosa-1(25),2,5(28),19,22(26),23-hexaen-7-yl]-3-methyl-butanamide]: the IC50 in experiment [1] is less than 1 nM; in experiment [2], 135 nM; in experiment [3], 121 nM; in experiment [4] it was 10 nM; in experiment [5], 4970 nM; in experiment [6] it was 299 nM. The IC50 amounted to 7 nM in experiment [7] and 20 nM in experiment [8].

As for `CO[C@@H](C)c1ncc(N2CCN(CC(F)(F)F)CC2)cc1-c1c2c3cc(c(F)cc3n1CC(F)(F)F)-c1csc(n1)C[C@H](NC(=O)[C@H](C(C)C)N1CC[C@@]3(CCN(C(=O)[C@H](F)Cl)C3)C1=O)C(=O)N1CCC[C@H](N1)C(=O)OCC(C)(C)C2` (atropisomer, axis not shown) [Example 43, (2S)-2-[(5R)-7-[(2R)-2-chloro-2-fluoro-acetyl]-1-oxo-2,7-diazaspiro[4.4]nonan-2-yl]-N-[(7S,13S)-24-fluoro-20-[2-[(1S)-1-methoxyethyl]-5-[4-(2,2,2-trifluoroethyl)piperazin-1-yl]-3-pyridyl]-17,17-dimethyl-8,14-dioxo-21-(2,2,2-trifluoroethyl)-15-oxa-4-thia-9,21,27,28-tetrazapentacyclo[17.5.2.1^2,5.1^9,13.0^22,26]octacosa-1(25),2,5(28),19,22(26),23-hexaen-7-yl]-3-methyl-butanamide], the IC50 in experiment [1] is less than 1 nM; in experiment [2], 67 nM; in experiment [3] it was 171 nM; in experiment [4] it was 22 nM; in experiment [5], 2200 nM; in experiment [6] it was 1690 nM. Further, the IC50 in experiment [7] turned out to be 6 nM; in experiment [8], 44 nM.

`CCn1c(-c2cc(N3CCN(C)CC3)cnc2[C@H](C)OC)c2c3cc(c(F)cc31)-c1csc(n1)C[C@H](NC(=O)[C@H](C(C)C)N1CCCC3(CCN(C(=O)[C@H](F)Cl)CC3)C1=O)C(=O)N1CCC[C@H](N1)C(=O)OCC(C)(C)C2` (atropisomer, axis not shown; (M)) [Example 36, (2S)-2-[9-[(2R)-2-chloro-2-fluoro-acetyl]-1-oxo-2,9-diazaspiro[5.5]undecan-2-yl]-N-[(7S,13S)-21-ethyl-24-fluoro-(20M)-20-[2-[(1S)-1-methoxyethyl]-5-(4-methylpiperazin-1-yl)-3-pyridyl]-17,17-dimethyl-8,14-dioxo-15-oxa-4-thia-9,21,27,28-tetrazapentacyclo[17.5.2.1^2,5.1^9,13.0^22,26]octacosa-1(25),2,5(28),19,22(26),23-hexaen-7-yl]-3-methyl-butanamide]: the half-maximal inhibitory concentration (IC50) in experiment [1] is less than 1 nM; in experiment [2], 30 nM; in experiment [3], 132 nM; in experiment [4], 38 nM; in experiment [5] it was 3940 nM; in experiment [6], greater than 10000 nM. Also, the IC50 in experiment [7] came out at 3 nM; in experiment [8], 13 nM.

In the case of `CO[C@@H](C)c1ncc(N2CCN(CC(F)(F)F)CC2)cc1-c1c2c3cc(c(F)cc3n1CC(F)(F)F)-c1csc(n1)C[C@H](NC(=O)[C@H](C(C)C)N1CCCC3(CCN(C(=O)[C@H](F)Cl)CC3)C1=O)C(=O)N1CCC[C@H](N1)C(=O)OCC(C)(C)C2` (atropisomer, axis not shown; (M)) [Example 42, (2S)-2-[9-[(2R)-2-chloro-2-fluoro-acetyl]-1-oxo-2,9-diazaspiro[5.5]undecan-2-yl]-N-[(7S,13S)-24-fluoro-(20M)-20-[2-[(1S)-1-methoxyethyl]-5-[4-(2,2,2-trifluoroethyl)piperazin-1-yl]-3-pyridyl]-17,17-dimethyl-8,14-dioxo-21-(2,2,2-trifluoroethyl)-15-oxa-4-thia-9,21,27,28-tetrazapentacyclo[17.5.2.1^2,5.1^9,13.0^22,26]octacosa-1(25),2,5(28),19,22(26),23-hexaen-7-yl]-3-methyl-butanamide], the IC50 in experiment [1] was less than 1 nM; in experiment [2] it was 44 nM; in experiment [3], 82 nM; in experiment [4], 73 nM; in experiment [5], 3970 nM; in experiment [6] it was 7860 nM. For the same compound, the IC50 is 3 nM in experiment [7] and 24 nM in experiment [8].

Turning to `CO[C@@H](C)c1ncc(N2CCN(CC(F)(F)F)CC2)cc1-c1c2c3cc(c(F)cc3n1CC(F)(F)F)-c1csc(n1)C[C@H](NC(=O)[C@H](C(C)C)N(C)C(=O)C1(F)CCN(C(=O)[C@H](F)Cl)CC1)C(=O)N1CCC[C@H](N1)C(=O)OCC(C)(C)C2` (atropisomer, axis not shown; (M)) [Example 44, 1-[(2R)-2-chloro-2-fluoro-acetyl]-4-fluoro-N-[(1S)-1-[[(7S,13S)-24-fluoro-(20M)-20-[2-[(1S)-1-methoxyethyl]-5-[4-(2,2,2-trifluoroethyl)piperazin-1-yl]-3-pyridyl]-17,17-dimethyl-8,14-dioxo-21-(2,2,2-trifluoroethyl)-15-oxa-4-thia-9,21,27,28-tetrazapentacyclo[17.5.2.1^2,5.1^9,13.0^22,26]octacosa-1(25),2,5(28),19,22(26),23-hexaen-7-yl]carbamoyl]-2-methyl-propyl]-N-methyl-piperidine-4-carboxamide], the IC50 was less than 1 nM in experiment [1]; 134 nM in experiment [2]; greater than 5000 nM in experiment [3]; 34 nM in experiment [4]; 1340 nM in experiment [5]; 607 nM in experiment [6]. The IC50 in experiment [7] was found to be 10 nM; in experiment [8], 44 nM.
